# “Also recorded” adds a separate entry of the source. Like-named read-outs stand apart in the source and are kept apart here.
# How the values were obtained:
# [1] = test system: cell growth; conditions: cited from earlier work
# [2] = test system: RS virus; conditions: moi 1-2, control titers 1-5 × 10^7
# [3] = test system: RS virus; assay: RS virus cytopathology / syncytium formation in Hep-2 cells (Table 3); conditions: for Effect on RS virus cytopathology (syncytia) / Suppression of RS virus syncytia (in words): Hep-2; for Effect on RS virus cytopathology (syncytia): added 2 hour post infection
# [4] = test system: A549
# [5] = test system: BHK-21
# [6] = test system: CV-1
# [7] = target: plasminogen activator urokinase; conditions: cited from earlier work
# [8] = test system: Hep-2 cells
# [9] = target: pancreatic kallikrein; conditions: cited from earlier work
# [10] = test system: RS virus; assay: RS virus cytopathic effect in CV-1 cells; format: cell-based, A2 strain; conditions: 50 μM; 8 days post infection; over 50% of untreated monolayer destroyed
# Description: (§1) This reduction of cytopathology was even more obvious in RS virus infected CV-1 cells examined at 8 days post infection. It was observed that in untreated infected cultures over 50% of the monolayer was destroyed during the multiple cycles of RS virus growth.
# [11] = test system: P-3; assay: P-3 yield in CV-1 cells maintained with compound 7; format: cell-based, Parainfluenza type 3; conditions: 50 μM for 6 days; challenged on day 6
# [12] = test system: RS virus; assay: RS yields after pretreatment of Hep-2 cells at high multiplicities of infection; format: cell-based, A2 strain
# Description: RS virus. Even at high multiplicities of infection, pretreatment of Hep-2
# reduction of RS yields. The results in Table 5 also reveal that the […]
# [13] = test system: RS virus; format: cell-based, A2 strain
# [14] = test system: RS virus; assay: Multiple cycle yields of RS virus (Table 5); format: cell-based, A2 strain; conditions: for Multiple cycle yield of RS virus, treated: 50 μM
# Description: (§2) Virus yields were quantitated by calculating 50 percent end points according to the method of Reed and Muench (A simple method for estimating fifty percent end-points. Am. J. Hyg. b 27, 493-497 (1938)). Briefly, 0.05 ml of virus diluted in MEM plus 10% FCS was added to micro-titer plates. This was followed by the addition of 40,000-60,000 Hep-2 cells in a volume of 0.05 ml. Plates were incubated at 36° C. for 5-7 days. Six or eight wells were used for each dilution. Standard error analysis was done according to the method of Pizzi (Sampling variation of the fifty percent endpoint determined by the Reed-Muench (Behrens) method. Human Biol. 22, 151-180 (1950)).
# (§3) For these experiments, Hep- 2 cells were infected with either RS virus or
# (§4) P-3 virus at multiplicities of infection of 0.1, 0.01, or 0.001. Following
# (§5) a 2 hour adsorption period, the cultures received medium with or without a
# (§6) The monolayers were harvested after
# (§7) multiple cycles of replication and the yields were determined in
# (§8) inhibitor-free microtiter assays.
# [15] = test system: MP mutant of HSV-1; assay: Fusion of CV-1 cells by MP mutant of HSV-1; format: cell-based, herpes simplex type 1
# Description: A polykaryoctye-forming mutant (MP) of herpes simplex type 1 (HSV-1) was also employed.
# as §1
# [16] = test system: HSV-1; assay: HSV-1 yield in CV-1 cells maintained with compound 7; format: cell-based, herpes simplex type 1; conditions: 50 μM for 6 days; challenged on day 6
# [17] = test system: P-3 virus; assay: Multiple cycle yields of P-3 virus (Table 5); format: cell-based, Parainfluenza type 3; conditions: 50 μM
# Description: as §2, §3, §4, §5, §6, §7, §8
compound,measurement,setting,value
"N=C(N)c1ccccc1 [Compound 1, Benzamidine, reference compound]",Concentration reducing cell growth rates,[1],greater than 500 μM
same,Single cycle yield of RS virus (RS virus titers),[2]; 50 μM,1.1 × 10^7 TCID50/ml
same,Effect on RS virus cytopathology (syncytia),[3]; 50 μM,S
"N=C(N)c1ccc(OCCCCCCOc2ccccc2)cc1 [Compound 3, 1-(4-Amidinophenoxy-6-phenoxyhexane]",Pattern of toxicity compared with Hep-2 cells,[4],identical pattern of toxicity
same,Single cycle yield of RS virus (RS virus titers),[2]; 10 μM,3.5 × 10^7 TCID50/ml
same,Pattern of toxicity compared with Hep-2 cells,[5],identical pattern of toxicity
same,Effect on RS virus cytopathology (syncytia),[3]; 10 μM,S
same,Pattern of toxicity compared with Hep-2 cells,[6],identical pattern of toxicity
"N=C(N)c1ccc(OCCCCCCCCOc2ccccc2)cc1 [Compound 4, 1-(4-Amidinophenoxy)-8-phenoxyoctane]",Single cycle yield of RS virus (RS virus titers),[2]; 10 μM,3.5 × 10^7 TCID50/ml
same,Effect on RS virus cytopathology (syncytia),[3]; 10 μM,S
"N=C(N)c1ccc(OCCC(O)COc2ccc(C(=N)N)cc2)cc1 (stereo not drawn) [Compound 5, 1,4-Di(4-amidinophenoxy)-2-butanol]",Single cycle yield of RS virus (RS virus titers),[2]; 10 μM,0.5 × 10^7 TCID50/ml
same,Single cycle yield of RS virus (RS virus titers),[2]; 100 μM,5.0 × 10^5 TCID50/ml
same,Inhibition of RS virus / RS virus-induced cell fusion (general statement),[3],inhibitively effective against RS virus
same,Effect on RS virus cytopathology (syncytia),[3]; 0.1 μM,S
same,Effect on RS virus cytopathology (syncytia),[3]; 1.0 μM,S
same,Suppression of RS virus syncytia (in words),[3],suppressed the appearance of the characteristic syncytia
same,Ki,[7],3200 nM
"N=C(N)c1ccc(OCc2cccc(COc3ccc(C(=N)N)cc3I)c2)c(I)c1 [Compound 6, α,α'-Bis(4-amidino-2-iodophenoxy)-m-xylene]",Pattern of toxicity compared with Hep-2 cells,[4],identical pattern of toxicity
same,Cytotoxicity relative to other compounds (in words),[8],as toxic as pentamidine
same,Ki,[9],31 nM
same,Single cycle yield of RS virus (RS virus titers),[2]; 10 μM,6.3 × 10^6 TCID50/ml
same,Pattern of toxicity compared with Hep-2 cells,[5],identical pattern of toxicity
same,Effect on RS virus cytopathology (syncytia),[3]; 0.1 μM,S
same,Effect on RS virus cytopathology (syncytia),[3]; 1.0 μM,S
same,Pattern of toxicity compared with Hep-2 cells,[6],identical pattern of toxicity
"N=C(N)c1ccc2nc(Cc3nc4ccc(C(=N)N)cc4[nH]3)[nH]c2c1 [Compound 7, Bis(5-amidino-2-benzimidazolyl)methane]",Pattern of toxicity compared with Hep-2 cells,[4],identical pattern of toxicity
same,RS virus cytopathic effect in CV-1 cells,[10],preservation of the monolayer with individual foci of infection appearing to be inhibited in their spread to uninfected areas of the culture
same,P-3 yield after prolonged exposure of CV-1 cells,[11],normal yields
same,log reduction at 50 µM,[12],1 to 2
same,Behavior of RS virus replicated in presence of inhibitor versus control,"[13]; 50 μM, RSI series vs C series",did not behave differently from the control
same,Effect on RS virus penetration (in words),[13]; compound 7: 50 μM,penetration was delayed to a similar degree
same,"RS virus titer, TCID50 (Log 10)","[13]; titer #1: RSI + I + A, 50 μM",4.11 TCID50 (Log 10)
same,"RS virus titer, TCID50 (Log 10)","[13]; titer #2: RSI + I + A (so in the source), 50 μM",5.97 TCID50 (Log 10)
same,"RS virus titer, TCID50 (Log 10)","[13]; titer #3: RSI - I + A, virus grown with 50 μM, none during adsorption",5.50 TCID50 (Log 10)
same,"RS virus titer, TCID50 (Log 10)","[13]; titer #4: RSI - I + A (so in the source), virus grown with 50 μM, none during adsorption",5.97 TCID50 (Log 10)
same,"RS virus titer, TCID50 (Log 10)","[13]; titer #5: C + I + A, untreated control #7 (C - I + A) 6.73",5.59 TCID50 (Log 10)
same,"RS virus titer, TCID50 (Log 10)","[13]; titer #6: C + I - A, untreated control #8 (C - I + A as printed) 6.97",6.92 TCID50 (Log 10)
same,"Multiple cycle yield of RS virus, treated","[14]; moi 0.001, harvested 120 hr post infection, control 2.8 × 10^6",1.1 × 10^4 TCID50 /ml
same,"Multiple cycle yield of RS virus, treated","[14]; moi 0.01, harvested 120 hr post infection, control 3.2 × 10^7",1.2 × 10^5 TCID50 /ml
same,"Multiple cycle yield of RS virus, treated","[14]; moi 0.1, harvested 72 hr post infection, control 5.0 × 10^7",6.3 × 10^6 TCID50 /ml
same,Effect on multiple cycle yields / spreading of RS virus (in words),"[14]; compound 7: 50 μM, low moi",considerably less; also recorded: greatly reduced the spreading
same,Effect on ability of MP mutant of HSV-1 to fuse cells,[15],no effect
same,HSV-1 yield after prolonged exposure of CV-1 cells,[16],normal yields
same,Single cycle yield of RS virus (RS virus titers),[2]; 50 μM,6.3 × 10^7 TCID50/ml
same,Single cycle yield of RS virus (RS virus titers),[2]; 500 μM,2.0 × 10^7 TCID50/ml
same,Pattern of toxicity compared with Hep-2 cells,[5],identical pattern of toxicity
same,Inhibition of RS virus / RS virus-induced cell fusion (general statement),[3],inhibitively effective against RS virus
same,Effect on RS virus cytopathology (syncytia),[3]; 0.1 μM,S
same,Fusion of RS virus-infected cells (morphology),"[3]; 1.0 μM, moi 1-2, 40 hrs post infection",abolition of fusion
same,minimal effective concentration,"[3]; HEp-2, read-out: Lowest concentration inhibiting syncytium formation",1 µM
same,Effect on yield of P-3 virus (in words),[17]; low moi,"slight, but consistent decrease"
same,"Multiple cycle yield of P-3 virus, treated","[17]; moi 0.001, harvested 72 hr post infection, control 2.0 × 10^8",6.3 × 10^7 TCID50 /ml
same,"Multiple cycle yield of P-3 virus, treated","[17]; moi 0.01, harvested 48 hr post infection, control 7.9 × 10^7",4.6 × 10^7 TCID50 /ml
same,"Multiple cycle yield of P-3 virus, treated","[17]; moi 0.1, harvested 48 hr post infection, control 3.5 × 10^8",7.9 × 10^7 TCID50 /ml
same,Pattern of toxicity compared with Hep-2 cells,[6],identical pattern of toxicity
"N=C(N)c1ccc2nc(CCc3nc4ccc(C(=N)N)cc4[nH]3)[nH]c2c1 [Compound 8, 1,2-Bis(5-amidino-2-benzimidazolyl)ethane]",Single cycle yield of RS virus (RS virus titers),[2]; 10 μM,6.3 × 10^7 TCID50/ml
same,Single cycle yield of RS virus (RS virus titers),[2]; 100 μM,7.9 × 10^7 TCID50/ml
same,Inhibition of RS virus / RS virus-induced cell fusion (general statement),[3],inhibitively effective against RS virus
same,Effect on RS virus cytopathology (syncytia),[3]; 0.1 μM,S
same,Effect on RS virus cytopathology (syncytia),[3]; 1.0 μM,S
same,Suppression of RS virus syncytia (in words),[3],lower activity
"N=C(N)c1ccc2[nH]ccc2c1 [Compound 9, 5-Amidinoindole]",Single cycle yield of RS virus (RS virus titers),[2]; 10 μM,2.9 × 10^7 TCID50/ml
same,Single cycle yield of RS virus (RS virus titers),[2]; 100 μM,6.3 × 10^7 TCID50/ml
same,Inhibition of RS virus / RS virus-induced cell fusion (general statement),[3],inhibitively effective against RS virus
same,Effect on RS virus cytopathology (syncytia),[3]; 0.1 μM,S
same,Effect on RS virus cytopathology (syncytia),[3]; 1.0 μM,S
"N=C(N)c1ccc2occc2c1 [Compound 10, 5-Amidinobenzofuran]",Single cycle yield of RS virus (RS virus titers),[2]; 10 μM,1.1 × 10^7 TCID50/ml
same,Single cycle yield of RS virus (RS virus titers),[2]; 100 μM,6.3 × 10^7 TCID50/ml
same,Effect on RS virus cytopathology (syncytia),[3]; 10 μM,S
same,Effect on RS virus cytopathology (syncytia),[3]; 100 μM,S
"N=C(N)c1ccc2nc[nH]c2c1 [Compound 11, 5-Amidinobenzimidazole]",Cytotoxicity relative to other compounds (in words),[8],possessed the same or even less toxic activity than benzamidine
same,Single cycle yield of RS virus (RS virus titers),[2]; 100 μM,8.7 × 10^7 TCID50/ml
same,Inhibition of RS virus / RS virus-induced cell fusion (general statement),[3],inhibitively effective against RS virus
same,Effect on RS virus cytopathology (syncytia),[3]; 1.0 μM,S
same,Effect on RS virus cytopathology (syncytia),[3]; 10 μM,S
same,Suppression of RS virus syncytia (in words),[3],suppressed the appearance of the characteristic syncytia
"Cn1ccc2cc(C(=N)N)ccc21 [Compound 12, 5-Amidino-1-methylindole]",Cytotoxicity relative to other compounds (in words),[8],intermediate in their cytotoxicity
same,Inhibition of RS virus / RS virus-induced cell fusion (general statement),[3],inhibitively effective against RS virus
same,Suppression of RS virus syncytia (in words),[3],suppressed the appearance of the characteristic syncytia
"N=C(N)c1ccc(Cn2ccc3cc(C(=N)N)ccc32)cc1 [Compound 13, 5-Amidino-1-(4-amidinobenzyl)indole]",Cytotoxicity relative to other compounds (in words),[8],intermediate in their cytotoxicity
same,Inhibition of RS virus / RS virus-induced cell fusion (general statement),[3],inhibitively effective against RS virus
same,Effect on RS virus cytopathology (syncytia),[3]; 0.1 μM,S
same,Effect on RS virus cytopathology (syncytia),[3]; 1.0 μM,S
same,Suppression of RS virus syncytia (in words),[3],suppressed the appearance of the characteristic syncytia
